“And” between values parts separate entries of the source, which are not always exact repeats. Equal entries are not always repeated. Where two headings read alike, the source gives them in different places.
Key:
[1] = biological target: T1, hM4‐Gα16 mAChR (Homo sapiens, UniProt P08173); assay: Inhibition of agonist-stimulated calcium mobilization; format: cell-based
T1 sequence (P08173 1-479): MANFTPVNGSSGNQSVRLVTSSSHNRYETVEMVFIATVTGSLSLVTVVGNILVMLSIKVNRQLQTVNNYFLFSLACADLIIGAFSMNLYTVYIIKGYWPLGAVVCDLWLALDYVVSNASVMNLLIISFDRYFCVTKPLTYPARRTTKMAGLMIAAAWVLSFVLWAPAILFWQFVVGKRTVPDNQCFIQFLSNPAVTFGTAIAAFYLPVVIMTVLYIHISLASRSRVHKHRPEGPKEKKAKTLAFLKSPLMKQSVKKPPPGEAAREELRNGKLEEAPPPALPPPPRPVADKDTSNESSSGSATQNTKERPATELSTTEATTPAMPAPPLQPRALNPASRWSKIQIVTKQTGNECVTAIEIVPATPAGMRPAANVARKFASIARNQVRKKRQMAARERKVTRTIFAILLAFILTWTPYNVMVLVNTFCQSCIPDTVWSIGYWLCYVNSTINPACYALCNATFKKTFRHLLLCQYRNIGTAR

[2] = biological target: T2, cM5 mAChR (Pan troglodytes, UniProt Q5IS53); assay: as above; format: cell-based, chimpanzee
T2 sequence (Q5IS53 1-532): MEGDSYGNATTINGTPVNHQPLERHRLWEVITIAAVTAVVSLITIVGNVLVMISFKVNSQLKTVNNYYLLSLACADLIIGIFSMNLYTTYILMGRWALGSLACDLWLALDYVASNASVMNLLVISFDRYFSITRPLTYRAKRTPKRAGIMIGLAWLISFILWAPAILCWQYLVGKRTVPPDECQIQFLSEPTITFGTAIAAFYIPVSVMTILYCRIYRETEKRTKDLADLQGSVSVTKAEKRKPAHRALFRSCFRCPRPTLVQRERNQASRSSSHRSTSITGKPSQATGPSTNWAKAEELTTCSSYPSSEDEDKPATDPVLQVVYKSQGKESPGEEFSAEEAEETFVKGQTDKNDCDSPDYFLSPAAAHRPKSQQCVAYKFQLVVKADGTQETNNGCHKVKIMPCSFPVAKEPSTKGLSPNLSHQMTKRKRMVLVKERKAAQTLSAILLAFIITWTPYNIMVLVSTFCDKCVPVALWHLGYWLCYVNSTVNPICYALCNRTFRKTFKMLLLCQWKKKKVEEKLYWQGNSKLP

[3] = system: human isolated bronchial tissue; conditions: human bronchus, carbachol; cited from earlier work
[4] = biological target: T3, hM4 mAChR (Homo sapiens, UniProt P08173); assay: Competition radioligand binding, [^3H]NMS
T3 sequence (P08173 1-479): T1 sequence (P08173 1-479)

[5] = biological target: T4, hM5 mAChR (Homo sapiens, UniProt P08912); assay: Competition radioligand binding, [^3H]NMS
T4 sequence (P08912 1-532): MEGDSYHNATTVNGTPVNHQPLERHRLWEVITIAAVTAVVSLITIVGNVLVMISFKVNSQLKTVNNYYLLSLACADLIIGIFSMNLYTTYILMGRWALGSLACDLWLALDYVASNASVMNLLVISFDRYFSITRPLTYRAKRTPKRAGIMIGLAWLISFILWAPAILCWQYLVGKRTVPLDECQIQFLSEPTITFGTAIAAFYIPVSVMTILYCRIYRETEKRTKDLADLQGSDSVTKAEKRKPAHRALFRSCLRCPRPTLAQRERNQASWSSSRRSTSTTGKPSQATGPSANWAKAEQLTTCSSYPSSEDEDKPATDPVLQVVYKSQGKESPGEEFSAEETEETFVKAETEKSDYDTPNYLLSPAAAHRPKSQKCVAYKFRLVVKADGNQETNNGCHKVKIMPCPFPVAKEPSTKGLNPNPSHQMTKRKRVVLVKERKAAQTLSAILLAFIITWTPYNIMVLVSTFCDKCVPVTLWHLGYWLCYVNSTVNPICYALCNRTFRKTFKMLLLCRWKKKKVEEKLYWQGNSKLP

[6] = system: guinea pig isolated trachea; assay: Inhibition of EFS contraction: potency and offset time; conditions: IC90 concentration, washout
[7] = biological target: T5, hM1 mAChR (Homo sapiens, UniProt P11229); assay: Saturation radioligand binding
T5 sequence (P11229 1-460): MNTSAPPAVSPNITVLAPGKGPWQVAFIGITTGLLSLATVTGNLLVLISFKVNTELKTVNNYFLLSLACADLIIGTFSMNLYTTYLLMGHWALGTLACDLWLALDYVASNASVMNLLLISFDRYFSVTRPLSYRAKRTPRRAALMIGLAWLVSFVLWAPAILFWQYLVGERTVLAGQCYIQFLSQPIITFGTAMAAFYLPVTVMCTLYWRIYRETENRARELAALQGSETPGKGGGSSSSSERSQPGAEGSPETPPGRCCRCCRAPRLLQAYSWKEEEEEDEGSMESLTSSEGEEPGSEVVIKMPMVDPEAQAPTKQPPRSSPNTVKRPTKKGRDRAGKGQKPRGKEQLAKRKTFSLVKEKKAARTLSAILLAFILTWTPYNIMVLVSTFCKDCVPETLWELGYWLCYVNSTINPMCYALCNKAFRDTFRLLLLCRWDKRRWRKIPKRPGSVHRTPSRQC

[8] = biological target: T6, hM3 mAChR (Homo sapiens, UniProt P20309); assay: Saturation radioligand binding
[9] = biological target: T3, hM4 mAChR; assay: Saturation radioligand binding
[10] = biological target: T4, hM5 mAChR; assay: Saturation radioligand binding
[11] = biological target: T7, hM2 mAChR (Homo sapiens, UniProt P08172); assay: Association and dissociation binding kinetics; conditions: 37°C
T7 sequence (P08172 1-466): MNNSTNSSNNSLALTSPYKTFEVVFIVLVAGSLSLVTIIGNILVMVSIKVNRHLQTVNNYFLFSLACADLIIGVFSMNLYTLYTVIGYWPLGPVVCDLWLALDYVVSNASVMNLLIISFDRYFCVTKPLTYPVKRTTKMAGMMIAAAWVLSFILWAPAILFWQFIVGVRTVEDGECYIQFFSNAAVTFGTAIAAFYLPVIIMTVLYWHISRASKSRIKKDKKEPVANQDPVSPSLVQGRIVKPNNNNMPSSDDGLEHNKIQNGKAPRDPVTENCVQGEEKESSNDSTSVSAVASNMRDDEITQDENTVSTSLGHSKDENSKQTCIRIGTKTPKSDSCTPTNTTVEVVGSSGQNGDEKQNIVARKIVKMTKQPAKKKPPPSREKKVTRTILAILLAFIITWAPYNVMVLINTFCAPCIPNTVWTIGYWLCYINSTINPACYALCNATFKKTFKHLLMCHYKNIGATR

[12] = biological target: T5, hM1 mAChR; assay: Inhibition of agonist-stimulated calcium mobilization; format: cell-based
[13] = biological target: T6, hM3 mAChR; assay: as above; format: cell-based
[14] = biological target: T7, hM2 mAChR; assay: Inhibition of agonist-stimulated [^35S]GTPγS binding, CHO-K1 membranes; format: biochemical; conditions: absence of agonist
[15] = biological target: T6, hM3 mAChR; assay: Reversibility of antagonism of ACh-induced calcium mobilization, CHO-K1 cells; format: cell-based
[16] = system: rat isolated tracheal tissue; assay: Antagonism of ACh-evoked contraction: potency and offset time
[17] = biological target: histamine H1 receptor (Cavia porcellus, UniProt P31389); assay: H1 radioligand binding, concentration-response; conditions: selectivity hM3 over H1
[18] = biological target: cloned human 5‐HT4(C) receptors (Homo sapiens, UniProt Q13639); assay: 5-HT4 agonist assay; format: cell-based
[19] = system: panel of 81 receptors, enzymes, and channels; assay: Off-target panel screen; format: binding; conditions: 1 μmol L^−1
[20] = biological target: Guinea Pig H1 (central) (Cavia porcellus, UniProt P31389); assay: Off-target panel radioligand binding; conditions: read-out: % Inhibition Specific Binding (1 µM)
[21] = system: bronchoconstrictor response to ACh or methacholine (MCh); conditions: rats, inhalation dosing; cited from earlier work
[22] = system: bronchoconstrictor response to ACh or methacholine (MCh); conditions: dogs, inhalation dosing; cited from earlier work
[23] = system: COPD patients; conditions: nebulized, once‐daily dosing; cited from earlier work
[24] = biological target: T5, hM1 mAChR; assay: Competition radioligand binding, [^3H]NMS
[25] = biological target: T6, hM3 mAChR; assay: Competition radioligand binding, [^3H]NMS; conditions: hM3 pKI, [^3H]NMS competition, CHO-K1 membranes, 37°C; mean ± SD
[26] = biological target: T6, hM3 mAChR; assay: Association and dissociation binding kinetics
[27] = system: human isolated bronchial tissue; assay: Antagonism of carbachol-evoked contraction: potency and offset time; conditions: superfusion washout, 10‐100 nmol·L^−1, 1 μmol L^−1 CCh, 10 hours perfusion
[28] = biological target: T7, hM2 mAChR; conditions: cited from earlier work
[29] = biological target: T6, hM3 mAChR; conditions: cited from earlier work
[30] = tested alone in cells expressing mAChRs

T6 sequence (P20309 whole entry): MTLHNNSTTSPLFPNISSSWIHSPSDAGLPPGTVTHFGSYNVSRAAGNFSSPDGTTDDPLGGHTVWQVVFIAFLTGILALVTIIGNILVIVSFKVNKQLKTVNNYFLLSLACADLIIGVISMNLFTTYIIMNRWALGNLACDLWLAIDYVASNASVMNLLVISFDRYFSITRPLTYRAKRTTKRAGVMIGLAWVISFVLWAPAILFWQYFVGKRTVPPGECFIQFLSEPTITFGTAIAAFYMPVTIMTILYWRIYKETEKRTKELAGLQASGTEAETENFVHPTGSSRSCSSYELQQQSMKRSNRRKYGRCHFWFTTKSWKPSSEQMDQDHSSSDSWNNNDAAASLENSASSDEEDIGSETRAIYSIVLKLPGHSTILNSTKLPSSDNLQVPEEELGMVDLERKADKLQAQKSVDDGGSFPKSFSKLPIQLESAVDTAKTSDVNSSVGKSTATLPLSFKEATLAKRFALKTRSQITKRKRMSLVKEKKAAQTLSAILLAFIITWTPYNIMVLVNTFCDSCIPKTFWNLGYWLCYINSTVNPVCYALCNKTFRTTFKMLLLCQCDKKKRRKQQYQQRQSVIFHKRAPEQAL
cloned human 5‐HT4(C) receptors, sequence (Q13639 1-380 isoform Q13639-4): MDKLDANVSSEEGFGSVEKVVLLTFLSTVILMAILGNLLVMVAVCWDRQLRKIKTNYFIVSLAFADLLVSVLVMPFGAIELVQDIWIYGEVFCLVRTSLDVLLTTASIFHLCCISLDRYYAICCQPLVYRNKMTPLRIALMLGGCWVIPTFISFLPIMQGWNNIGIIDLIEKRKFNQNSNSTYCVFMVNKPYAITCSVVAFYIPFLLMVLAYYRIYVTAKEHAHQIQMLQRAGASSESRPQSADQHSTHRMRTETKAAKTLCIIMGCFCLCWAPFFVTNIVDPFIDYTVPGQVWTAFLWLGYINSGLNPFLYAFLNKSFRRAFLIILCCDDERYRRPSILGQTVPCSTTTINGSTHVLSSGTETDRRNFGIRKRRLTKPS
histamine H1 receptor, sequence (P31389 whole entry): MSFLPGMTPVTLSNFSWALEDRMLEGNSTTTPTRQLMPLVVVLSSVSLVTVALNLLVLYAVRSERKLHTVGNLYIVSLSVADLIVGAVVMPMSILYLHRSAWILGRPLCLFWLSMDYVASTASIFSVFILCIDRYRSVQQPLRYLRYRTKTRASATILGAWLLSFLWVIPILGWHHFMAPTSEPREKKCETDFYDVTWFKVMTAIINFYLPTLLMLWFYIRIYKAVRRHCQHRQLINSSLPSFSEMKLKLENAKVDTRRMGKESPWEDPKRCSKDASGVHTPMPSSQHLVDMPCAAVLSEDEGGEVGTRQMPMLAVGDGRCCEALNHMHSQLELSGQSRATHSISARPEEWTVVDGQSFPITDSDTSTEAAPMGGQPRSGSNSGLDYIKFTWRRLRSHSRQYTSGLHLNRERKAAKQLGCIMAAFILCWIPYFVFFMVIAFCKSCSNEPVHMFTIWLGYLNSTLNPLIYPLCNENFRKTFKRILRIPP
Guinea Pig H1 (central), sequence (P31389 whole entry): as above

**Q.** For `C[N+]1(C)[C@@H]2C[C@@H](OC(=O)C(O)(c3cccs3)c3cccs3)C[C@H]1[C@@H]1O[C@@H]12` [Tiotropium, reference compound], which Ki [1] is on record?
**A.** 0.0617 nM

**Q.** And the Ki [2]?
**A.** 0.105 nM

**Q.** What about the nature of antagonism [3] of the same compound?
**A.** potent insurmountable antagonist

**Q.** And the Ki [4]?
**A.** 0.0204 nM

**Q.** And the Ki [5]?
**A.** 0.0813 nM

**Q.** What about the “offset t 1/2” value [6] of the same compound?
**A.** > 20 h

**Q.** For `CN(CCN1CCC(OC(=O)Nc2ccccc2-c2ccccc2)CC1)C(=O)c1ccc(CN2CCC(C(N)=O)CC2)cc1` [Revefenacin, biphenyl‐2‐ylcarbamic acid 1‐(2‐{[4‐(4‐carbamoylpiperidin‐1‐ylmethyl)benzoyl]methylamino}ethyl)piperidin‐4‐yl ester], which Kd [7] is on record?
**A.** 1 nM

**Q.** And the Kd [8]?
**A.** 0.39 nM

**Q.** What about the Kd [9] of the same compound?
**A.** 0.46 nM

**Q.** And the Kd [10]?
**A.** 4.2 nM

**Q.** And the “dissociation t 1/2 M2” value [11]?
**A.** 6.9 min

**Q.** What about the Ki [12] of the same compound?
**A.** 0.126 nM

**Q.** What about the “Ca^2+ response when tested alone (agonist activity), hM1” value [12, 30] of the same compound?
**A.** no Ca^2+ response

**Q.** What about the Ki [13] of the same compound?
**A.** 0.0955 nM

**Q.** And the “Ca^2+ response when tested alone (agonist activity), hM3” value [13, 30]?
**A.** no Ca^2+ response

**Q.** What about the Ki [1] of the same compound?
**A.** 0.0112 nM

**Q.** And the “Ca^2+ response when tested alone (agonist activity), hM4‐Gα16” value [1, 30]?
**A.** no Ca^2+ response

**Q.** And the Ki [2]?
**A.** 0.363 nM

**Q.** And the “Ca^2+ response when tested alone (agonist activity), cM5” value [2, 30]?
**A.** no Ca^2+ response

**Q.** What about the “stimulation of [^35S]GTPγS binding at hM2 (agonist activity)” value [14] of the same compound?
**A.** did not stimulate

**Q.** And the Kb [15]?
**A.** 0.0933 nM

**Q.** What about the “offset t 1/2” value ([16]; IC90 concentration, washout, time for response to recover by 50%) of the same compound?
**A.** 13.3 h

**Q.** And the “potency lower than that of tiotropium” value ([16]; from pKB)?
**A.** 4 fold

**Q.** And the “potency greater than that of ipratropium” value ([16]; pKB vs pA2)?
**A.** 20 fold

**Q.** And the “potency at histamine H1 receptor lower than Ki at the hM3 receptor” value [17]?
**A.** > 2700 fold

**Q.** What about the EC50 [18] of the same compound?
**A.** 257 nM

**Q.** And the “potency at 5‐HT4 receptor lower than Ki at the hM3 receptor” value ([18]; selectivity hM3 over 5-HT4)?
**A.** > 1400 fold

**Q.** And the “activity at a majority of the targets” value [19]?
**A.** < 75%

**Q.** What about the inhibition at 1 µM [20] of the same compound?
**A.** 87%

**Q.** What about the “duration of bronchoprotective effect” value [21] of the same compound?
**A.** ≥ 24 h

**Q.** And the “duration of bronchoprotective effect” value [22]?
**A.** ≥ 24 h

**Q.** And the duration of bronchodilation [23]?
**A.** 24 h

**Q.** And the Ki [24]?
**A.** 0.417 nM

**Q.** What about the Ki [25] of the same compound?
**A.** 0.2 nM and 0.178 nM

**Q.** And the Ki ([4]; hM4 KI, [^3H]NMS competition, from IC50 by Cheng and Prusoff)?
**A.** 0.56 nM

**Q.** What about the Ki ([4]; hM4 pKI, [^3H]NMS competition, CHO-K1 membranes, 37°C, mean ± SD) of the same compound?
**A.** 0.55 nM

**Q.** What about the Ki ([5]; hM5 KI, [^3H]NMS competition, from IC50 by Cheng and Prusoff) of the same compound?
**A.** 6.7 nM

**Q.** And the Ki ([5]; hM5 pKI, [^3H]NMS competition, CHO-K1 membranes, 37°C, mean ± SD)?
**A.** 6.31 nM

**Q.** What about the Kd [26] of the same compound?
**A.** 0.0933 nM

**Q.** What about the “hM3 dissociation t 1/2 shorter than that of tiotropium” value [26] of the same compound?
**A.** 2.8 fold

**Q.** And the “dissociation t 1/2 M3” value ([26]; 37°C)?
**A.** 1.37 h

**Q.** And the “offset t 1/2” value [6]?
**A.** > 16 h

**Q.** What about the “offset t 1/2” value [27] of the same compound?
**A.** > 10 h

**Q.** With `CC(C)[N+]1(C)[C@@H]2CC[C@H]1C[C@@H](OC(=O)C(CO)c1ccccc1)C2` (stereo partly drawn) [Ipratropium, reference compound] as the compound, how does the Ki [2] read?
**A.** 0.191 nM

**Q.** And the pA2 ([16]; ACh contraction, surmountable antagonist)?
**A.** 9.2 ± 0.1

**Q.** And the “dissociation from hM2 receptors” value [28]?
**A.** dissociate rapidly

**Q.** What about the “dissociation from hM3 receptors” value [29] of the same compound?
**A.** dissociate rapidly

**Q.** What about the nature of antagonism [3] of the same compound?
**A.** surmountable antagonism
